# Results: the supplement of paper PMC10307832
# Compound: Cn1c(=O)n(-c2ccc(C(C)(C)C#N)cc2)c2c3cc(-c4cnc5ccccc5c4)ccc3ncc21 [Dactolisib] + O=C(CCCCCCC(=O)Nc1ccccc1)NO [Vorinostat] (partner 1 µM)
# Assay: relative viability (nuclei count vs DMSO), 5 days (fraction); higher = more cells survive
# Conditions: first compound 0.002 µM
# Summary of the method: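 Medians of duplicate plates are given as relative viability. That measure is the nuclei count in treated wells divided by the count in vehicle wells. Counts were taken on 4× images of lung cancer cell lines in 1536-well plates, 5 days after pin-tool dosing the day after seeding with one drug alone or a fixed anchor-drug dose plus five library-drug doses (not always all listed) in √10 steps.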
row,Cell Line,relative viability
1,NCI-H2342,0.656
2,NCI-H1650,0.47
3,NCI-H1993,0.849
4,SK-LU-1,0.766
5,NCI-H838,0.746
6,LCLC-103H,0.82
7,NCI-H520,0.747
8,NCI-H2126,0.856
9,EMC-BAC-2,0.492
10,NCI-H2085,0.801
11,HCC-366,0.285
12,NCI-H1666,1.09
13,NCI-H596,0.48
14,LK-2,0.317
15,NCI-H2087,0.731
16,NCI-H1648,0.506

row,Cell Line,relative viability
1,SK-MES-1,0.954
2,H3255,0.936
3,COR-L23,0.367
4,COR-L 105,0.677
5,IA-LM,1
6,LOU-NH91,0.903
7,ChaGo-K-1,0.724
8,NCI-H2170,0.821
9,HCC-44,1.12
10,NCI-H522,0.861
11,SW 900,0.478
12,NCI-H1395,0.423
13,NCI-H1793,0.794
14,NCI-H1944,0.576
15,ABC-1,1.19
16,NCI-H358,0.68

# Same assay, conditions: first compound 0.006325 µM
row,Cell Line,relative viability
1,NCI-H2342,0.832
2,NCI-H727,1.31
3,NCI-H1650,0.508
4,NCI-H1993,0.54
5,SK-LU-1,0.697
6,NCI-H838,0.575
7,LCLC-103H,0.863
8,NCI-H520,0.596
9,NCI-H2126,0.763
10,EMC-BAC-2,0.442
11,NCI-H2085,0.742
12,HCC-366,0.407
13,NCI-H1666,0.977
14,NCI-H596,0.577
15,LK-2,0.247
16,NCI-H2087,0.458
17,NCI-H1648,0.421

row,Cell Line,relative viability
1,SK-MES-1,1
2,H3255,0.783
3,COR-L23,0.363
4,COR-L 105,0.88
5,IA-LM,0.903
6,LOU-NH91,0.898
7,ChaGo-K-1,0.821
8,NCI-H2170,0.815
9,HCC-44,1.14
10,NCI-H522,0.833
11,SW 900,0.443
12,NCI-H1395,0.622
13,NCI-H1793,0.358
14,NCI-H1944,0.56
15,ABC-1,1.34
16,NCI-H358,0.652

# Same assay, conditions: first compound 0.02 µM
row,Cell Line,relative viability
1,NCI-H2342,0.698
2,NCI-H727,1.16
3,NCI-H1650,0.504
4,NCI-H1993,0.537
5,SK-LU-1,0.671
6,NCI-H838,0.497
7,LCLC-103H,0.719
8,NCI-H520,0.416
9,NCI-H2126,0.594
10,EMC-BAC-2,0.353
11,NCI-H2085,0.712
12,HCC-366,0.325
13,NCI-H1666,0.969
14,NCI-H596,0.521
15,LK-2,0.294
16,NCI-H2087,0.501
17,NCI-H1648,0.654

row,Cell Line,relative viability
1,SK-MES-1,0.998
2,H3255,0.706
3,COR-L23,0.277
4,COR-L 105,0.828
5,IA-LM,0.817
6,LOU-NH91,0.784
7,ChaGo-K-1,0.719
8,NCI-H2170,0.754
9,HCC-44,1.21
10,NCI-H522,0.79
11,SW 900,0.434
12,NCI-H1395,0.554
13,NCI-H1793,0.293
14,NCI-H1944,0.492
15,ABC-1,0.94
16,NCI-H358,0.503

# Same assay, conditions: first compound 0.06325 µM
row,Cell Line,relative viability
1,NCI-H2342,0.75
2,NCI-H727,0.981
3,NCI-H1650,0.32
4,NCI-H1993,0.481
5,SK-LU-1,0.448
6,NCI-H838,0.36
7,LCLC-103H,0.443
8,NCI-H520,0.212
9,NCI-H2126,0.427
10,EMC-BAC-2,0.266
11,NCI-H2085,0.363
12,HCC-366,0.0887
13,NCI-H1666,0.922
14,NCI-H596,0.313
15,LK-2,0.239
16,NCI-H2087,0.176
17,NCI-H1648,0.435

row,Cell Line,relative viability
1,SK-MES-1,0.504
2,H3255,0.811
3,COR-L23,0.157
4,COR-L 105,0.402
5,IA-LM,0.426
6,LOU-NH91,0.524
7,ChaGo-K-1,0.623
8,NCI-H2170,0.613
9,HCC-44,1.14
10,NCI-H522,0.822
11,SW 900,0.216
12,NCI-H1395,0.496
13,NCI-H1793,0.205
14,NCI-H1944,0.29
15,ABC-1,0.824
16,NCI-H358,0.154

# Same assay, conditions: first compound 0.2 µM
row,Cell Line,relative viability
1,NCI-H2342,0.568
2,NCI-H727,1.3
3,NCI-H1650,0.264
4,NCI-H1993,0.284
5,SK-LU-1,0.321
6,NCI-H838,0.306
7,LCLC-103H,0.412
8,NCI-H520,0.151
9,NCI-H2126,0.426
10,EMC-BAC-2,0.219
11,NCI-H2085,0.329
12,HCC-366,0.0549
13,NCI-H1666,0.87
14,NCI-H596,0.222
15,LK-2,0.213
16,NCI-H2087,0.339
17,NCI-H1648,0.203
18,SK-MES-1,0.475
19,H3255,0.594
20,COR-L23,0.161
21,COR-L 105,0.394
22,IA-LM,0.267
23,LOU-NH91,0.529
24,ChaGo-K-1,0.757
25,NCI-H2170,0.259
